“Also recorded” adds a separate entry of the source. Values belong to the compound of their own block, whether it stands above or below them. Positions of bridges follow the written chain, without caps; N, C: chain ends. Non-standard residues stand in square brackets, D forms with d. Residues, ends and D or L forms follow the SMILES beside them. No end group written: not given here. *: point of attachment. Pyrazinecarbonyl = O=C(c1cnccn1)*
Columns and labels:
[1] = tested on: Adriamycin (ADR)-induced proteinuria; experiment: Adriamycin (ADR)-induced nephropathy model; assay type: in vivo; conditions: rat
From the text: Adriamycine (doxorubicin) is a drug used in chemotherapy. It is known to cause undesirable renal toxicitiy in rat, mainly glomerular damage (via podocyte injury/loss), resulting in proteinuric neophrapthy (Hakroush et al., 2014, J. Am. Soc. Nephrology, 25:927-38), and it is the prototypical model of human primary focal and segmental glomerulosclerosis. ADR-induced mephropathy, in mouse or rat, is a robust in vivo model of proteinuria that can easily and directly be measured in urine, thus allowing for monitoring of disease progression in living animals. It is induced by a single intravenous injection of ADR.
Male CD rats (aged 8 weeks) were acclimatized in the facility for at least 5 days. On Day 0, rats received Adriamycin at a dose level of 7.5 mg/kg by tail vein administration at a dose volume of 5 mL/kg. If needed, an abbocath was used for administration. The abbocath will be flushed with 0.5 mL of 0.9% saline after Adriamycin injection. […]
Once pretreatment and on pre-determined days (e.g. days 5, 10, 15, 20) blood samples (0.7 mL) was collected from the jugular vein in SST tubes and analyzed for serum creatinine and BUN. Once pretreatment and on pre-determined days (e.g. days 5, 10, 15, 20) urine samples were collected overnight from individually housed animals. After collection, serum and urine samples were processed and analyzed for creatinine (serum & urine), BUN (serum) and total protein (urine). […] The time the animals are placed in urine collection cages and time of sample collection was recorded. […]
Once pretreatment and on Day 21, blood samples (0.7 mL) were collected from the jugular vein in SST tubes and analyzed for serum creatinine and BUN. Once pretreatment and on pre-determined days (Days 5, 10, 15, 21) urine samples were collected overnight from individually housed animals. After collection, serum and urine samples were processed and analyzed for creatinine (serum & urine), BUN (serum) and total protein (urine). […] The time the animals are placed in urine collection cages and time of sample collection was recorded. […]

[2] = Pharmacokinetic studies of THR-123 and GPR-294 i.v. and s.c. (FIG. 13, FIGS. 5-8); assay type: in vivo
Experimental: A stock solution of THR-123 was prepared at 250 μg/mL in DMSO. This solution was quantitatively added to blank mouse plasma to generate a calibration curve. The linear range was from 0.25 to 250 ng/mL. A 175 μL aliquot of plasma from removed from each calibrant tube and processed using solid phase extraction (SPE). Study samples were first diluted with blank control mouse plasma, and 175 μL was aliquoted for processing using SPE. An internal standard working solution (ISWS) was added to each calibrant and study sample (GPR-227 at 100 ng/mL in water). Plasma proteins were precipitated with 175 μL of methanol with 0.5% acetic acid (v/v). After centrifugation at 14,800 RPM for 10 minutes, a 300 μL aliquot of supernatant was diluted in water with 4% phosphoric acid (v/v). The entire diluted sample was extracted by SPE using a Waters Oasis HLB 96-well μElution plate. Samples were washed twice using a solution of acidified water (0.1% TFA, v/v) and 15% MeOH in water (v/v). Purified extracts were eluted into a 96-well collection plate using 40 μL of elution solvent. Standards and study samples were injected onto a Thermo Q-exactive LC-MS/MS system. Chromatographic separation was performed using a reversed-phase C18 HPLC column (Waters CSH C18, 50×2.1 mm, 2.5 μm). Analyte and internal standard were detected using the targeted selected ion monitoring (tSIM) scan mode. Calibration curves were generated by using a weighted (1/concentration^2) linear regression of the peak area ratios (analyte/internal standard) versus the nominal concentration of the calibration standards. The concentration of the analyte in the study samples was determined by back-calculating the peak area ratios obtained using the linear regression and applying the appropriate dilution factors.
The study described herein involved single (mouse) or multiple (rat) blood collections after test article administration. Test articles are given by oral (PO), intravenous (IV), subcutaneous (SC) or intraperitoneal (IP) routes. All animals have a five day acclimatization period before dosing. Body weights are recorded prior to dosing. […]

Ex-vivo plasma stability = assay type: in vitro ADME, mouse or rat
Experimental: Test article is added to fresh mouse or rat plasma at a final in-vial concentration of 1 μM. The peptide is incubated in a water bath at 37° C. over a time course that included the following points (in minutes): 0, 15, 30, 60, 120, 240, and 1440. After the incubation time is completed, a 50 μL aliquot of plasma is removed and proteins are precipitated using a solution containing internal standard (THR-123 at 150 ng/mL) in methanol with 0.5% acetic acid (v/v). The samples are centrifuged at 13,000 RPM for 5 minutes, and a 100 μL aliquot of supernatant is removed and transferred to a 96-well plate containing 200 μL of reconstitution solution (Water/MeOH/Acetic Acid/TFA, 60/40/0.2/0.05, v/v/v/v). A calibration curve and quality control (QC) samples are prepared in parallel in the same manner as the incubation samples. The calibration range for this assay is from 0.02 to 2.0 μM in rat or mouse plasma. The extracted calibrants, QC, and incubation samples are injected onto an AB SCIEX API 2000 LC-MS/MS system. Chromatographic separation is performed using a reversed-phase C18 HPLC column (Ace-3 C18, 30×2.1 mm, 3 μm). The solvent system consists of Milli-Q water, acetonitrile and formic acid. Analyte and internal standard are detected using the multiple reaction monitoring (MRM) scan mode. Calibration curves are generated by using a weighted (1/concentration) quadratic regression analysis of the peak area ratios (analyte/internal standard) versus the nominal concentration of the calibration standards. The concentration of the analyte in the incubation samples is determined by back-calculating the peak area ratios obtained using the quadratic regression.

[3] = rat kidney tissue 10 minutes post IV administration; conditions: up to 10 minutes
[4] = plasma after s.c. administration of 1 mg/kg Compound III; after IV administration
[5] = fresh mouse or rat plasma; conditions: 37° C., up to 120 min (Table 6; protocol lists up to 1440)
FIGURE 31 (2/2) = experiment: FIGURE 31 (2/2)
Experimental: Table printed on a drawing sheet, FIGURE 31 (2/2)
(§1) Peptide to internal standard peak area ratios were used calculate percentage remaining peptide at 60 minutes and 120 minutes. Peptides are identified by GPR number (GPR#) and SEQ ID NO.
First reader's note: Second part (2/2) of Figure 31, continued from the previous sheet; in the last row (GPR 478) the empty N-Terminal cell is merged with position 1.

FIGURE 31 (1/2) = experiment: FIGURE 31 (1/2)
Experimental: Table printed on a drawing sheet, FIGURE 31 (1/2)
as §1
First reader's note: First of two sheets of FIGURE 31; the table continues on sheet 2/2, and the meaning of the asterisks is not printed on this sheet.

Compound: CCOC(=O)[C@H](CCc1ccccc1)N[C@@H](C)C(=O)N1CCC[C@H]1C(=O)O [Enalapril]
- ADR-induced renal lesions in H&E-stained kidney sections ([1]; 21 days post ADR, treated daily, glomerular hypertrophy, protein casts, tubular dilation, neutrophils): absent or reduced in number
- effect on ADR-induced proteinuria (urine protein to urine creatinine) ([1]; ADR 7.5 mg/kg, daily for 21 days, GPR-405 300 nmol/kg sc, enalapril 50 mg/kg po): efficacious
- effect on serum creatinine (sCr) and blood urea nitrogen (BUN) ([1]; following Adriamycin treatment, GPR-405 300 nmol/kg sc, enalapril 50 mg/kg po, FIG. 24): Neither enalapril nor GPR-405 had any marked effect

Compound: Cys-Tyr-Phe-Asp-Asp-Ser-Ser-Asn-Val-Leu-Cys-Lys-Lys-D-tyr-Arg-Ser
- not cleaved [4]: prevented the proteolytic cleavage between the amino acids 14 and 15

Compound: [N-terminal: Pirazinyl-CO-]Cys-Tyr-Phe-Asp-Asp-Ser-Ser-Asn-Val-Leu-Cys-Lys-Lys-Tyr-Arg-Ser (Pyrazinecarbonyl-CYFDDSSNVLCKKYRS-OH; disulfide 1-11 (inferred)) [SEQ ID NO:33]
- % Remaining at 60 and 120 minutes | 60 (FIGURE 31 (1/2)): 44.3%
- % Remaining at 60 and 120 minutes | 120 (FIGURE 31 (1/2)): 23.6%

Second part, led by results:

- bioavailability ([2]; in vivo, s.c. versus i.v., FIG. 13, read-out: bioavailable by sub-cutaneous administration): 100%
- remaining at 1 h (Ex-vivo plasma stability; fresh plasma 37° C., 1 μM, 60 min, read-out: Percent remaining 60 min): 72.6%
- remaining at 2 h (Ex-vivo plasma stability; fresh plasma 37° C., 1 μM, 120 min, read-out: Percent remaining 120 min): 67.9%
- stability toward plasma proteolytic cleavage (Ex-vivo plasma stability; versus THR-123, rat plasma (FIGS. 3 and 4)): enhanced
Compound: CC(C)C[C@@H]1NC(=O)[C@H](C(C)C)NC(=O)[C@H](CC(N)=O)NC(=O)[C@H](CO)NC(=O)[C@H](CO)NC(=O)[C@H](CC(=O)O)NC(=O)[C@H](CC(=O)O)NC(=O)[C@H](Cc2ccccc2)NC(=O)[C@H](Cc2ccc(O)cc2)NC(=O)[C@@H](N)CSSC[C@@H](C(=O)N[C@@H](CCCCN)C(=O)N[C@@H](CCCCN)C(=O)N[C@H](Cc2ccc(O)cc2)C(=O)N[C@@H](CCCNC(=N)N)C(=O)N[C@@H](CO)C(=O)O)NC1=O [GPR-294, Cys-Tyr-Phe-Asp-Asp-Ser-Ser-Asn-Val-Leu-Cys-Lys-Lys-D-tyr-Arg-Ser] (H-CYFDDSSNVLCKK[dY]RS-OH; disulfide 1-11)
- plasma half-life compared with THR-123 ([2]; by either route of administration (i.v., s.c.)): much longer plasma half-life than the non-stabilized THR-123

- cleaved bond [3]: Y14-R15, major, 10 minutes
Compound: CYFDDSSNVLCKKYRS (cysteine pairing not given here)
- fragment found [3]: VI (GPR-263) Cys-Tyr-Phe-Asp-Asp-Ser-Ser-Asn-Val-Leu-Cys, 10 minutes; also recorded: VIII (GPR-262) Cys-Tyr-Phe-Asp-Asp-Ser-Ser-Asn-Val-Leu-Cys-Lys, 10 minutes; also recorded: IX (GPR-261) Cys-Tyr-Phe-Asp-Asp-Ser-Ser-Asn-Val-Leu-Cys-Lys-Lys, 10 minutes

- not cleaved [5]: 94.7 percent remaining at 120 min
Compound: Cys-Tyr-Tyr-Asp-Asp-Ser-Ser-Ser-Val-Leu-Cys-Lys-Lys-D-tyr-Arg-Ser

- % Remaining at 60 and 120 minutes | 60 (FIGURE 31 (2/2)): 87.7%
- % Remaining at 60 and 120 minutes | 120 (FIGURE 31 (2/2)): 78.9%
Compound: Y Y F S S S F V L C K R y* R S [478 | 68]
